# Source: patent publication US12357598B2, “Treatment of neurodevelopmental disorders” (THE REGENTS OF THE UNIVERSITY OF CALIFORNIA, priority 2018, dated 2025)
# System: ddY mice
# Experiment: Oxylipin analysis of plasma and brain regions of juvenile offspring after maternal glyphosate exposure
# Assay type: in vivo, mouse
# Conditions: juvenile offspring (P28), maternal 0.095% glyphosate
# Text: Collection of blood and brain samples and oxylipin analysis. Water or 0.095% glyphosate was given to pregnant mice from E5 to P21, as described above. The male offspring were separated from their mothers at weaning (P21). At juvenile (P28) stage, mice were deeply anesthetized with isoflurane and plasma was collected. Subsequently, brains were removed from the skulls. For Western blot analysis, brain regions such as prefrontal cortex (PFC), hippocampus, and striatum, were dissected from brain on ice. The samples were stored at −80° C. before assay. For oxylipin analysis, plasma was collected after isoflurane anesthesia at juvenile (P28) stage. Subsequently, PFC, hippocampus, and striatum were dissected from brain on ice, and the samples were stored at −80° C. before assay. Measurement of eicosanoids in the plasma and brain regions was performed at UC Davis using the previous method (4).
structure (smiles),measurement,setting,value
O=C(O)CNCP(=O)(O)O [glyphosate],"4,5-DiHDPE level",PFC,1.083 ± 0.242 pmol/g
same,5(6)-EpETrE level,PFC,3862.881 ± 1353.639 pmol/g
same,"5,6-DiHETrE level",PFC,0.699 ± 0.113 pmol/g
same,5-HEPE level,PFC,1.760 ± 0.234 pmol/g
same,5-HETE level,PFC,18.560 ± 1.797 pmol/g
same,5-oxo-ETE level,PFC,142.497 ± 16.459 pmol/g
same,6-keto-PGF1a level,PFC,88.691 ± 7.208 pmol/g
same,7(8)-EpDPE level,PFC,3640.707 ± 1175.101 pmol/g
same,8(9)-EpETE level,PFC,1.992 ± 0.638 pmol/g
same,8(9)-EpETrE alt level,PFC,447.323 ± 148.765 pmol/g
same,8(9)-EpETrE level,PFC,12713.4 ± 6124.0 pmol/g
same,8-HEPE level,PFC,0.959 ± 0.080 pmol/g
same,8-HETE level,PFC,7.904 ± 0.840 pmol/g
same,9(10)-EpOME level,PFC,57.775 ± 18.915 pmol/g
same,"9,10,13-TriHOME level",PFC,31.772 ± 4.440 pmol/g
same,"9,12,13-TriHOME level",PFC,52.749 ± 6.979 pmol/g
same,9-HETE level,PFC,1.826 ± 0.587 pmol/g
same,9-HODE level,PFC,32.184 ± 2.752 pmol/g
same,10(11)-EpDPE level,PFC,270.138 ± 86.641 pmol/g
same,11(12)-EpETE level,PFC,2.775 ± 0.733 pmol/g
same,11(12)-EpETrE level,PFC,1128.684 ± 354.042 pmol/g
same,"11,12-,15-TriHETrE level",PFC,27.925 ± 2.262 pmol/g
same,"11,12-DiHETrE level",PFC,1.383 ± 0.124 pmol/g
same,11-HETE level,PFC,275.604 ± 19.707 pmol/g
same,12(13)-EpOME level,PFC,67.240 ± 21.629 pmol/g
same,12-HEPE level,PFC,6.850 ± 1.105 pmol/g
same,12-HETE level,PFC,448.365 ± 69.003 pmol/g
same,12-oxo-ETE level,PFC,2140.116 ± 142.081 pmol/g
same,13(14)-EpDPE level,PFC,190.175 ± 59.161 pmol/g
same,"13,14-DiHDPE level",PFC,0.851 ± 0.076 pmol/g
same,13-HODE level,PFC,45.239 ± 3.261 pmol/g
same,14(15)-EpETE level,PFC,1.633 ± 0.487 pmol/g
same,14(15)-EpETrE level,PFC,1037.632 ± 291.994 pmol/g
same,"14,15-DiHETrE level",PFC,2.498 ± 0.243 pmol/g
same,15(16)-EpODE level,PFC,0.500 ± 0.121 pmol/g
same,15(S)-HETrE level,PFC,11.900 ± 1.029 pmol/g
same,15-HETE level,PFC,313.016 ± 24.240 pmol/g
same,15-oxo-ETE level,PFC,10.104 ± 1.289 pmol/g
same,16(17)-EpDPE level,PFC,195.454 ± 58.684 pmol/g
same,"16,17-DiHDPE level",PFC,1.154 ± 0.110 pmol/g
same,17(18)-EpETE level,PFC,3.729 ± 1.017 pmol/g
same,17-HDoHE level,PFC,6200.527 ± 739.211 pmol/g
same,19(20)-EpDPE level,PFC,353.450 ± 99.156 pmol/g
same,"19,20-DiHDPE level",PFC,7.491 ± 0.703 pmol/g
same,EKODE level,PFC,12.663 ± 1.143 pmol/g
same,LTB3 level,PFC,53.423 ± 26.072 pmol/g
same,PGD2 level,PFC,439.532 ± 37.011 pmol/g
same,PGE2 level,PFC,137.389 ± 14.051 pmol/g
same,PGF2a level,PFC,431.431 ± 34.510 pmol/g
same,TXB2 level,PFC,246.160 ± 16.777 pmol/g
same,"4,5-DiHDPE level",hippocampus,1.572 ± 0.704 pmol/mL
same,5(6)-EpETrE level,hippocampus,917.184 ± 134.826 pmol/mL
same,"5,6-DiHETrE level",hippocampus,0.470 ± 0.051 pmol/mL
same,5-HEPE level,hippocampus,2.917 ± 0.708 pmol/mL
same,5-HETE level,hippocampus,16.705 ± 0.992 pmol/mL
same,5-oxo-ETE level,hippocampus,94.461 ± 9.488 pmol/mL
same,6-keto-PGF1a level,hippocampus,113.103 ± 15.509 pmol/mL
same,7(8)-EpDPE level,hippocampus,460.824 ± 81.977 pmol/mL
same,8(9)-EpETE level,hippocampus,3.435 ± 0.784 pmol/mL
same,8(9)-EpETrE alt level,hippocampus,89.694 ± 12.609 pmol/mL
same,8(9)-EpETrE level,hippocampus,971.2 ± 484.7 pmol/mL
same,8-HEPE level,hippocampus,1.415 ± 0.182 pmol/mL
same,8-HETE level,hippocampus,5.383 ± 0.796 pmol/mL
same,9(10)-EpOME level,hippocampus,9.131 ± 1.032 pmol/mL
same,"9,10,13-TriHOME level",hippocampus,29.123 ± 5.450 pmol/mL
same,"9,12,13-TriHOME level",hippocampus,51.599 ± 10.194 pmol/mL
same,9-HETE level,hippocampus,2.073 ± 0.532 pmol/mL
same,9-HODE level,hippocampus,31.282 ± 6.681 pmol/mL
same,10(11)-EpDPE level,hippocampus,40.179 ± 5.185 pmol/mL
same,11(12)-EpETE level,hippocampus,1.254 ± 0.537 pmol/mL
same,11(12)-EpETrE level,hippocampus,254.371 ± 33.701 pmol/mL
same,"11,12-,15-TriHETrE level",hippocampus,20.278 ± 1.789 pmol/mL
same,"11,12-DiHETrE level",hippocampus,0.914 ± 0.053 pmol/mL
same,11-HETE level,hippocampus,261.315 ± 27.149 pmol/mL
same,12(13)-EpOME level,hippocampus,11.355 ± 1.474 pmol/mL
same,12-HEPE level,hippocampus,9.094 ± 3.984 pmol/mL
same,12-HETE level,hippocampus,131.250 ± 40.185 pmol/mL
same,12-oxo-ETE level,hippocampus,1245.436 ± 206.406 pmol/mL
same,13(14)-EpDPE level,hippocampus,27.748 ± 3.955 pmol/mL
same,"13,14-DiHDPE level",hippocampus,0.516 ± 0.089 pmol/mL
same,13-HODE level,hippocampus,54.648 ± 8.929 pmol/mL
same,14(15)-EpETE level,hippocampus,0.712 ± 0.184 pmol/mL
same,14(15)-EpETrE level,hippocampus,241.703 ± 26.592 pmol/mL
same,"14,15-DiHETrE level",hippocampus,1.183 ± 0.095 pmol/mL
same,15(16)-EpODE level,hippocampus,2.750 ± 0.907 pmol/mL
same,15(S)-HETrE level,hippocampus,7.994 ± 1.430 pmol/mL
same,15-HETE level,hippocampus,263.402 ± 29.963 pmol/mL
same,15-oxo-ETE level,hippocampus,8.232 ± 0.652 pmol/mL
same,16(17)-EpDPE level,hippocampus,29.112 ± 4.286 pmol/mL
same,"16,17-DiHDPE level",hippocampus,0.675 ± 0.093 pmol/mL
same,17(18)-EpETE level,hippocampus,1.592 ± 0.499 pmol/mL
same,17-HDoHE level,hippocampus,5997.276 ± 762.508 pmol/mL
same,19(20)-EpDPE level,hippocampus,55.856 ± 8.656 pmol/mL
same,"19,20-DiHDPE level",hippocampus,5.359 ± 0.322 pmol/mL
same,EKODE level,hippocampus,11.362 ± 1.014 pmol/mL
same,LTB3 level,hippocampus,13.669 pmol/mL
same,PGD2 level,hippocampus,349.020 ± 34.288 pmol/mL
same,PGE2 level,hippocampus,68.947 ± 7.203 pmol/mL
same,PGF2a level,hippocampus,314.752 ± 30.178 pmol/mL
same,TXB2 level,hippocampus,198.203 ± 24.835 pmol/mL
